Source: PubChem BioAssay (NCI)
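In this assay, cells in 96-well plates receive the compound at five concentrations for 48 hours. Endpoints are linearly interpolated between the surrounding concentrations. GI50 = concentration required for 50% inhibition of growth. The concentration for full growth arrest is given as TGI.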

Experiments:
Experiment in all cases: NCI-60 cell line screen, 48 h
MOLT-4 leukemia = test system: MOLT-4 leukemia
SF-295 CNS = test system: SF-295 CNS
CCRF-CEM leukemia = test system: CCRF-CEM leukemia
UACC-62 melanoma = test system: UACC-62 melanoma
OVCAR-4 ovarian = test system: OVCAR-4 ovarian
UACC-257 melanoma = test system: UACC-257 melanoma
OVCAR-5 ovarian = test system: OVCAR-5 ovarian
SNB-19 CNS = test system: SNB-19 CNS
NCI-H522 lung = test system: NCI-H522 lung
SK-MEL-2 melanoma = test system: SK-MEL-2 melanoma
EKVX NSCLC = test system: EKVX NSCLC
M14 melanoma = test system: M14 melanoma
HOP-62 NSCLC = test system: HOP-62 NSCLC
HCT-15 colon = test system: HCT-15 colon
NCI-H460 lung = test system: NCI-H460 lung
MDA-MB-435 = test system: MDA-MB-435
A549 NSCLC = test system: A549 NSCLC
CAKI-1 renal = test system: CAKI-1 renal
T-47D breast = test system: T-47D breast
RPMI-8226 leukemia = test system: RPMI-8226 leukemia
OVCAR-3 ovarian = test system: OVCAR-3 ovarian
HOP-92 NSCLC = test system: HOP-92 NSCLC
SNB-75 CNS = test system: SNB-75 CNS
SF-268 CNS = test system: SF-268 CNS
MDA-MB-231 breast = test system: MDA-MB-231 breast
SK-MEL-28 melanoma = test system: SK-MEL-28 melanoma
NCI/ADR-RES ovarian = test system: NCI/ADR-RES ovarian
MALME-3M melanoma = test system: MALME-3M melanoma
MCF7 breast = test system: MCF7 breast
SK-MEL-5 melanoma = test system: SK-MEL-5 melanoma
OVCAR-8 ovarian = test system: OVCAR-8 ovarian
BT-549 breast = test system: BT-549 breast
COLO 205 colon = test system: COLO 205 colon
SK-OV-3 ovarian = test system: SK-OV-3 ovarian
SN12C renal = test system: SN12C renal
TK-10 renal = test system: TK-10 renal
SW-620 colon = test system: SW-620 colon
IGROV1 ovarian = test system: IGROV1 ovarian
HCC-2998 colon = test system: HCC-2998 colon
RXF 393 renal = test system: RXF 393 renal
K-562 leukemia = test system: K-562 leukemia
KM12 colon = test system: KM12 colon
A498 renal = test system: A498 renal
HCT-116 colon = test system: HCT-116 colon
SR leukemia = test system: SR leukemia
NCI-H23 lung = test system: NCI-H23 lung
DU-145 prostate = test system: DU-145 prostate
HL-60(TB) leukemia = test system: HL-60(TB) leukemia
HS 578T breast = test system: HS 578T breast
NCI-H226 lung = test system: NCI-H226 lung
HT29 colon = test system: HT29 colon
ACHN renal = test system: ACHN renal
UO-31 renal = test system: UO-31 renal
U251 CNS = test system: U251 CNS
SF-539 CNS = test system: SF-539 CNS
LOX IMVI melanoma = test system: LOX IMVI melanoma
786-0 renal = test system: 786-0 renal
PC-3 prostate = test system: PC-3 prostate

For `Oc1ccc(CCCCCCc2ccc(O)cc2)cc1`, the GI50 (MOLT-4 leukemia) was 0.566 µM, the TGI (MOLT-4 leukemia) was 27.9 µM and the GI50 (SF-295 CNS) was 3.18 µM. The TGI (SF-295 CNS) was 15.5 µM, the GI50 (CCRF-CEM leukemia) was 0.0471 µM and the TGI (CCRF-CEM leukemia) was 32.8 µM. The GI50 (UACC-62 melanoma) was 4.24 µM, the TGI (UACC-62 melanoma) was 15.3 µM and the GI50 (OVCAR-4 ovarian) was 14.4 µM. The TGI (OVCAR-4 ovarian) was > 46.9 µM, the GI50 (UACC-257 melanoma) was 13.9 µM and the TGI (UACC-257 melanoma) was 28.4 µM. The GI50 (OVCAR-5 ovarian) was 16.9 µM, the TGI (OVCAR-5 ovarian) was 31.4 µM and the GI50 (SNB-19 CNS) was 12.6 µM. It also gave a TGI (SNB-19 CNS) of 25.5 µM, a GI50 (NCI-H522 lung) of 5.98 µM and a TGI (NCI-H522 lung) of 24.2 µM. For the same compound, the GI50 (SK-MEL-2 melanoma) was 16 µM, the TGI (SK-MEL-2 melanoma) was 35.5 µM and the GI50 (EKVX NSCLC) was 10.3 µM. For the same compound, the TGI (EKVX NSCLC) was 26.7 µM, the GI50 (M14 melanoma) was 4.7 µM and the TGI (M14 melanoma) was 17.5 µM. The GI50 (HOP-62 NSCLC) was 10.3 µM, the TGI (HOP-62 NSCLC) was 23.4 µM and the GI50 (HCT-15 colon) was 12.3 µM. For the same compound, the TGI (HCT-15 colon) was 26.6 µM, the GI50 (NCI-H460 lung) was 5.88 µM and the TGI (NCI-H460 lung) was 18.9 µM. The GI50 (MDA-MB-435) was 11.8 µM, the TGI (MDA-MB-435) was 26.9 µM and the GI50 (A549 NSCLC) was 6.62 µM. For the same compound, the TGI (A549 NSCLC) was 23 µM, the GI50 (CAKI-1 renal) was 1.75 µM and the TGI (CAKI-1 renal) was 7.58 µM. For the same compound, the GI50 (T-47D breast) was 8.03 µM, the TGI (T-47D breast) was 27.2 µM and the GI50 (RPMI-8226 leukemia) was 12.1 µM. The TGI (RPMI-8226 leukemia) was > 69 µM, the GI50 (OVCAR-3 ovarian) was 6.02 µM and the TGI (OVCAR-3 ovarian) was 17.8 µM. The GI50 (HOP-92 NSCLC) was 6.99 µM, the TGI (HOP-92 NSCLC) was 20.5 µM and the GI50 (SNB-75 CNS) was 11.6 µM. It also gave a TGI (SNB-75 CNS) of 35.3 µM, a GI50 (SF-268 CNS) of 3.89 µM and a TGI (SF-268 CNS) of 17.5 µM. It also gave a GI50 (MDA-MB-231 breast) of 9.66 µM, a TGI (MDA-MB-231 breast) of 25.9 µM and a GI50 (SK-MEL-28 melanoma) of 17 µM. For the same compound, the TGI (SK-MEL-28 melanoma) was 31.5 µM, the GI50 (NCI/ADR-RES ovarian) was 3.99 µM and the TGI (NCI/ADR-RES ovarian) was 17.4 µM. The GI50 (MALME-3M melanoma) was 13.3 µM, the TGI (MALME-3M melanoma) was 29.6 µM and the GI50 (MCF7 breast) was 6.91 µM. It also gave a TGI (MCF7 breast) of 22.3 µM, a GI50 (SK-MEL-5 melanoma) of 5.27 µM and a TGI (SK-MEL-5 melanoma) of 17.1 µM. For the same compound, the GI50 (OVCAR-8 ovarian) was 5.18 µM, the TGI (OVCAR-8 ovarian) was 20.2 µM and the GI50 (BT-549 breast) was 2.94 µM. It also gave a TGI (BT-549 breast) of 18.7 µM, a GI50 (COLO 205 colon) of 15.2 µM and a TGI (COLO 205 colon) of 29.4 µM. It also gave a GI50 (SK-OV-3 ovarian) of 11.8 µM, a TGI (SK-OV-3 ovarian) of 34.1 µM and a GI50 (SN12C renal) of 9.22 µM. The TGI (SN12C renal) was 24.3 µM, the GI50 (TK-10 renal) was 19.7 µM and the TGI (TK-10 renal) was > 57.3 µM. It also gave a GI50 (SW-620 colon) of 7.29 µM, a TGI (SW-620 colon) of 20.5 µM and a GI50 (IGROV1 ovarian) of 8.83 µM. The TGI (IGROV1 ovarian) was 28.4 µM, the GI50 (HCC-2998 colon) was 11 µM and the TGI (HCC-2998 colon) was 23.2 µM. For the same compound, the GI50 (RXF 393 renal) was 8.03 µM, the TGI (RXF 393 renal) was 21.5 µM and the GI50 (K-562 leukemia) was 6.81 µM. The TGI (K-562 leukemia) was > 75.1 µM, the GI50 (KM12 colon) was 6.54 µM and the TGI (KM12 colon) was 19.8 µM. For the same compound, the GI50 (A498 renal) was 11.4 µM, the TGI (A498 renal) was 23.5 µM and the GI50 (HCT-116 colon) was 9.68 µM. The TGI (HCT-116 colon) was 22.5 µM, the GI50 (SR leukemia) was 6.15 µM and the TGI (SR leukemia) was > 100 µM. It also gave a GI50 (NCI-H23 lung) of 7.5 µM, a TGI (NCI-H23 lung) of 21.5 µM and a GI50 (DU-145 prostate) of 4.8 µM. For the same compound, the TGI (DU-145 prostate) was 15.2 µM, the GI50 (HL-60(TB) leukemia) was 0.839 µM and the TGI (HL-60(TB) leukemia) was 18.7 µM. For the same compound, the GI50 (HS 578T breast) was 13.3 µM, the TGI (HS 578T breast) was 37.4 µM and the GI50 (NCI-H226 lung) was 15.7 µM. It also gave a TGI (NCI-H226 lung) of 32.9 µM, a GI50 (HT29 colon) of 17 µM and a TGI (HT29 colon) of 34.5 µM. The GI50 (ACHN renal) was 1.55 µM, the TGI (ACHN renal) was 12 µM and the GI50 (UO-31 renal) was 2.36 µM. The TGI (UO-31 renal) was 15 µM, the GI50 (U251 CNS) was 5.61 µM and the TGI (U251 CNS) was 19.8 µM. The GI50 (SF-539 CNS) was 2.46 µM, the TGI (SF-539 CNS) was 13.7 µM and the GI50 (LOX IMVI melanoma) was 1.5 µM. It also gave a TGI (LOX IMVI melanoma) of 17.9 µM, a GI50 (786-0 renal) of 3.65 µM and a TGI (786-0 renal) of 15.1 µM. The GI50 (PC-3 prostate) was 9.87 µM and the TGI (PC-3 prostate) was 27.5 µM.
